# Several values for one entry are separate records, joined by “and”; a condition that tells them apart may be missing. Equal entries are not always repeated.
# Experiments:
# [1] = Complete blood count / biological data of SS patients during treatment with hydroxyurea; format: in vivo, human
# HbF [2] = experiment: Mean HbF percentage (% HbF) by HPLC in SS patients before and during treatment with hydroxyurea
# HbF [3] = experiment: HbF content of each red blood cell by flow cytometry (HbF distribution) during treatment with hydroxyurea
# [4] = SS patients, M6 of hydroxyurea, median
# [5] = 9 SS patients, D15-M3, mean (standard deviation)
# [6] = 9 SS patients, ≥M6, mean (standard deviation)
compound,measurement,setting,value
NC(=O)NO [hydroxyurea],Hemoglobin,[1]; [4],9.35 g/dL
same,MCHC,[1]; [4],34.40 g/dL
same,MCHCo,[1]; [4],33.80 pg
same,MCV,[1]; [4],100.50 femtoliter
same,change in mean corpuscular hemoglobin concentration (MCHC),[1]; after 6 months of treatment,no significant variation
same,change in mean corpuscular volume (MCV),[1]; after 6 months of treatment,significant increase
same,change in mean hemoglobin content per red blood cell (MCHCo),[1]; after 6 months of treatment,significant increase
same,change in percentage of dense red blood cells,"[1]; after 6 months of treatment, decrease not significant",tendency to decrease
same,"ASAT, relative difference in % D 0 vs M 6",[1]; patient 11,−52% and −52.7%
same,"HbF, relative difference in % D 0 vs M 6",[1]; patient 11,+14.5%
same,"LDH, relative difference in % D 0 vs M 6",[1]; patient 11,−57% and −57.7%
same,"RETIC, relative difference in % D 0 vs M 6",[1]; patient 11,−77% and −77.1%
same,ASAT (aspartate transaminase),"[1]; patient 11, M 6",26 IU/l
same,HbF,"[1]; patient 11, M 6",7.1 g/dL
same,LDH (lactate dehydrogenase),"[1]; patient 11, M 6",383 IU/l
same,MCHCo,"[1]; patient 11, M 6",38.9 pg
same,"ASAT, relative difference in % D 0 vs M 6",[1]; patient 24,−9.4%
same,"HbF, relative difference in % D 0 vs M 6",[1]; patient 24,+14.5%
same,"LDH, relative difference in % D 0 vs M 6",[1]; patient 24,−40.5%
same,"RETIC, relative difference in % D 0 vs M 6",[1]; patient 24,−57% and −57.2%
same,ASAT (aspartate transaminase),"[1]; patient 24, M 6",29 IU/l
same,HbF,"[1]; patient 24, M 6",8.7 g/dL
same,LDH (lactate dehydrogenase),"[1]; patient 24, M 6",303 IU/l
same,MCHCo,"[1]; patient 24, M 6",42 pg
same,increase of mean HbF percentage (% HbF),"HbF [2]; after 6 months of treatment, SS patients",approximately 3 fold
same,% HbF,"HbF [2]; patient 2, M6",25%
same,% HbF,"HbF [2]; patient 11, M 6",18%
same,% HbF,"HbF [2]; patient 24, M 6",18%
same,% HbF,"HbF [2]; total red blood cells, SS patients, D15-M1 of hydroxyurea, median",4.9%
same,% HbF,"HbF [2]; total red blood cells, SS patients, M3-M4 of hydroxyurea, median",7%
same,% HbF,"HbF [2]; total red blood cells, SS patients, M6 of hydroxyurea, median",10.05%
same,% RBCs with HbF [0; 2[ pg,HbF [3]; [5],65.63 (25.13 % RBCs
same,% RBCs with HbF [2; 4[ pg,HbF [3]; [5],11.32 (6.80 % RBCs
same,% RBCs with HbF [4; 6[ pg,HbF [3]; [5],4.88 (2.90 % RBCs
same,% RBCs with HbF [6; 8[ pg,HbF [3]; [5],3.42 (2.52 % RBCs
same,% RBCs with HbF [8; 10[ pg,HbF [3]; [5],2.65 (2.18 % RBCs
same,% RBCs with HbF [10; 15[ pg,HbF [3]; [5],2.41 (2.73 % RBCs
same,% RBCs with HbF [15; 20[ pg,HbF [3]; [5],4.42 (4.27 % RBCs
same,% RBCs with HbF ≥20 pg,HbF [3]; [5],5.27 (8.56 % RBCs
same,% RBCs with HbF [0; 2[ pg,HbF [3]; [6],53.17 (30.63 % RBCs
same,% RBCs with HbF [2; 4[ pg,HbF [3]; [6],15.05 (10.11 % RBCs
same,% RBCs with HbF [4; 6[ pg,HbF [3]; [6],6.70 (4.39 % RBCs
same,% RBCs with HbF [6; 8[ pg,HbF [3]; [6],3.92 (2.44 % RBCs
same,% RBCs with HbF [8; 10[ pg,HbF [3]; [6],2.72 (1.83 % RBCs
same,% RBCs with HbF [10; 15[ pg,HbF [3]; [6],2.55 (2.57 % RBCs
same,% RBCs with HbF [15; 20[ pg,HbF [3]; [6],4.29 (3.42 % RBCs
same,% RBCs with HbF ≥20 pg,HbF [3]; [6],11.60 (18.64 % RBCs
same,variation of red blood cells with medium-high HbF contents,HbF [3]; D0 to M6,much lower variations
same,change in red blood cells having a very low HbF content,HbF [3]; after 6 months of treatment,decreased greatly
same,increase of red blood cells with HbF content greater than 20 pg,HbF [3]; after 6 months of treatment,up to 3 fold
same,patients in whom HbF follows a homogeneous distribution,"HbF [3]; after 6 months of treatment, heterogeneous before treatment in 8 patients, 9 analyzed",6 patients
same,increase of red blood cells with HbF content greater than 20 g,"HbF [3]; after 6 months of treatment, variation not significant",up to 3 times
same,patients in whom HbF distribution becomes homogeneous,HbF [3]; after ≥M4,5 patients
same,"variation in red blood cells having the lowest HbF contents (0 and 2 pg), given as increase","HbF [3]; between D0 and M6, 9 patients",approximately 25%
same,% RBCs with HbF [0; 2[ pg,"HbF [3]; patient 2, D15-M1",9.21 % RBCs
same,% RBCs with HbF [2; 4[ pg,"HbF [3]; patient 2, D15-M1",14.72 % RBCs
same,% RBCs with HbF [4; 6[ pg,"HbF [3]; patient 2, D15-M1",9.52 % RBCs
same,% RBCs with HbF [6; 8[ pg,"HbF [3]; patient 2, D15-M1",8.47 % RBCs
same,% RBCs with HbF [8; 10[ pg,"HbF [3]; patient 2, D15-M1",7.35 % RBCs
same,% RBCs with HbF [10; 15[ pg,"HbF [3]; patient 2, D15-M1",9.03 % RBCs
same,% RBCs with HbF [15; 20[ pg,"HbF [3]; patient 2, D15-M1",14.27 % RBCs
same,% RBCs with HbF ≥20 pg,"HbF [3]; patient 2, D15-M1",27.43 % RBCs
same,% RBCs with HbF [0; 2[ pg,"HbF [3]; patient 2, M3-M4",5.29 % RBCs
same,% RBCs with HbF [2; 4[ pg,"HbF [3]; patient 2, M3-M4",8.62 % RBCs
same,% RBCs with HbF [4; 6[ pg,"HbF [3]; patient 2, M3-M4",10.61 % RBCs
same,% RBCs with HbF [6; 8[ pg,"HbF [3]; patient 2, M3-M4",10.39 % RBCs
